Test results as given in patent US8691864B2, “Agents useful for reducing amyloid precursor protein and treating dementia and methods of use thereof” (priority 2000, dated 2014).

Tests used:
total Aβ peptide = assay: total Aβ ELISA in SK-N-SH conditioned medium; assay type: cell-based, human; settings: 50 μM
Protocol: Total Aβ peptide levels in SH-SY-SY and SK-N-SH cultured samples were assayed by a sensitive ELISA (Suzuki et al., 1994). For total Aβ measurements in conditioned medium, the rabbit polyclonal antibody #3160 (1-40 residues of Aβ) was used as a capture antibody for all species of Aβ peptide (Aβ1-40 and Aβ1-42) while monoclonal antibody 4G8 (17-25 residues of Aβ) was used to detect Aβ peptide levels, and the values were expressed as the mean of six independent assays.
Likewise, (+)-phenserine reduced BAPP protein levels and total Aβ peptide levels at 16 hours (FIG. 5).

βAPP = βAPP levels in brain cortex and CSF of transgenic mice; assay type: in vivo; settings: 2.5 mg/kg i.p., once daily for 3 weeks
SK-N-SH cells = assay: LDH assay / cell number and viability, SK-N-SH cells; assay type: cell-based, human
Source text: Measurement of released lactate dehydrogenase (LDH) in the conditioned medium was undertaken as a marker of cell viability and integrity, as described previously (Lahiri et al., 1997 and 1998).
This was not associated with cellular dysfunction, as determined by measurement of LDH levels versus untreated controls (FIG. 4C).

APP-mRNA 5′UTR = assay: CAT reporter assay with βAPP-mRNA 5′UTR in transfected U373 MG cells; assay type: cell-based
Protocol: One day prior to transfection, U373 cells were plated onto 100 mm dishes at a density of 3×10^5 cells. On the day of transfection, the cells were given 5 ml of fresh media containing 10% FBS, 2 mM glutamine in DMEM. The cells were transfected using a calcium phosphate precipitation method, as per the manufacturer's protocol and described previously (Rogers et al., 1999). Briefly, for each plate, three μg of DNA (5′UTR APP-PSV2-CAT or PSV2-CAT vector) were placed in a final volume of […] of 250 mM CaCl2. The chloramphenicol acetyl transferase (CAT) gene was used as a reporter gene. The DNA solution was slowly pipetted into an aerated, equivalent volume of 2×HeBS, pH 7.05. The resulting precipitate was allowed to stand 10-20 min at RT before its addition to the cells. After 18 h, the medium was changed and the transfected cells were left for two days before drug treatment.
The cell lysates from transfected U373 cells treated with phenserine were analyzed for their CAT activity using a colorimetric enzyme immunoassay (Boehringer Mannheim, Indianapolis, Ind.). Briefly, 50 μg of protein (an amount previously found to lie within the linear range of the assay) were placed onto anti-CAT coated microtiter plate modules and allowed to bind for 1 h at 37° C. The plates were washed thoroughly after each step. Next, a digoxigenin-labeled anti-CAT antibody was added to the samples and incubated for 1 h at 37° C. A subsequent antibody, anti-digoxigenin conjugated to peroxidase, was placed in the wells for another hour under similar conditions. Finally peroxidase substrate, ABTS, was added to each well and the absorbance of each sample was measured at a wavelength of 405 nm.
The plasmid PSV2-APP-CatD was provided by Dr. Rogers (1999). […]
Quantitation of the fold stimulus of CAT gene activity conferred by the 5′ UTR βAPP-mRNA was measured. ELISA readings of CAT expression were measured at 405 nm. […] In other assays where the time of treatment was extended to 48 hours, only a 2-fold decrease in CAT reporter mRNA was detected with phenserine treatment.

Q: What does the source list for `CN1CC[C@@]2(C)c3cc(OC(=O)Nc4ccccc4)ccc3N(C)[C@@H]12` [(−)-phenserine]?
A: reduction of total Aβ versus untreated controls (total Aβ peptide; 8 hours): 14%; reduction of total Aβ versus untreated controls (total Aβ peptide; 16 hours): 31%; reduction of βAPP levels in CSF (βAPP): 55%; LDH levels in media (SK-N-SH cells; SK-N-SH, 50 μM, up to 16 hours): no significant difference between treated and untreated levels; toxicity as assessed by an LDH assay (SK-N-SH cells; SK-N-SH, 0.5, 5 or 50 μM, 16 hours): no significant toxicity; CAT activity in pSV2 CAT (parental vector) transfected cells (APP-mRNA 5′UTR; control vector, all time points): no inhibition; decrease of CAT gene activity conferred by the 5′ UTR βAPP-mRNA (APP-mRNA 5′UTR; pSV2 (APP) CAT transfected U373, 50 μM, 1 hour): 4 fold; decrease in CAT activity (APP-mRNA 5′UTR; pSV2 (APP) CAT transfected U373, treatment extended to 48 hours): 2 fold
